Results on 2 compounds are retold here after ChEMBL document CHEMBL4680351, “Antimicrobial and cytotoxic effects of ammonium derivatives of diterpenoids steviol and isosteviol” (Bioorg Med Chem, 2021).

Data set [1] can be described thus: Hemolytic activity against human erythrocytes after 1 hr by digital photoelectric colorimetric method. The data set is classed as ADME, cell-based, Erythrocyte.
The subject of data set [2] is HeLa. The data set can be described thus: Cytotoxicity against human HeLa cells assessed as reduction in cell viability by DAPI staining based assay.
Data set [3] deals with Staphylococcus aureus. The data set can be described thus: Antibacterial activity against Staphylococcus aureus 209P assessed as bacterial growth inhibition. The class given is functional.
Data set [4] has as its system Staphylococcus aureus. As to the kind of experiment: Bactericidal activity against Staphylococcus aureus MRSA-1 measured every 24 hrs for 5 days by serial dilution method. The data set is classed as functional. As to conditions: MRSA-1, 120 h, time 5 day.
Data set [5] deals with HepG2. As to the kind of experiment: Cytotoxicity against human HepG2 cells assessed as reduction in cell viability by DAPI staining based assay.
Data set [6] relates to MCF7. As to the kind of experiment: Cytotoxicity against human MCF7 cells assessed as reduction in cell viability by DAPI staining based assay. The data set is classed as functional.
The test system of data set [7] is T98G. The data set can be described thus: Cytotoxicity against human T98G cells assessed as reduction in cell viability by DAPI staining based assay.
Data set [8] relates to PC-3. As to the kind of experiment: Cytotoxicity against human PC-3 cells assessed as reduction in cell viability by DAPI staining based assay.
Data set [9] relates to Staphylococcus aureus. As to the kind of experiment: Bactericidal activity against Staphylococcus aureus MRSA-2 measured every 24 hrs for 5 days by serial dilution method. The note with it: MRSA-2, 120 h, time 5 day. The class given is functional.
The subject of data set [10] is Staphylococcus aureus. As to the kind of experiment: Antibacterial activity against Staphylococcus aureus MRSA-2 assessed as bacterial growth inhibition in Mueller-Hinton broth 2 measured every 24 hrs for 5 days by serial dilution method. The data set is classed as functional. The note with it: MRSA-2, 120 h, time 5 day.
Data set [11] relates to Staphylococcus aureus. The data set can be described thus: Antibacterial activity against Staphylococcus aureus MRSA-1 assessed as bacterial growth inhibition in Mueller-Hinton broth 2 measured every 24 hrs for 5 days by serial dilution method. The data set is classed as functional. As to conditions: MRSA-1, 120 h, time 5 day.
Data set [12] relates to A549. As to the kind of experiment: Cytotoxicity against human A549 cells assessed as reduction in cell viability by DAPI staining based assay.
Data set [13] relates to Staphylococcus aureus. As to the kind of experiment: Bactericidal activity against Staphylococcus aureus 209P measured every 24 hrs for 5 days by serial dilution method. The class given is functional. As to conditions: 120 h, time 5 day.
For data set [14], the system named is WI-38. The data set can be described thus: Cytotoxicity against human WI-38 cells assessed as reduction in cell viability by DAPI staining based assay.

Non-standard residues stand in square brackets, D forms with d. Residues, ends and D or L forms follow the SMILES beside them. Orn = NCCC[C@H](N)C(=O)O

The HC50 is the concentration that lyses half of the red blood cells. Read a high HC50 as weaker haemolysis. The compound `CC(C)C[C@@H]1NC(=O)[C@H](CCCN)NC(=O)[C@H](C(C)C)NC(=O)[C@@H]2CCCN2C(=O)[C@@H](Cc2ccccc2)NC(=O)[C@H](CC(C)C)NC(=O)[C@H](CCCN)NC(=O)[C@H](C(C)C)NC(=O)[C@@H]2CCCN2C(=O)[C@@H](Cc2ccccc2)NC1=O` [GRAMICIDIN S] (cyclo(L[dF]PV[Orn]L[dF]PV[Orn])) displayed a concentration for 50% haemolysis (HC50) at 1 h in data set [1] of 9.4 µM.

For orientation: IC50 means the concentration at which inhibition is half-maximal. By MIC is commonly meant the smallest concentration in the dilution series that meets the test's criterion for growth inhibition. A word on the MBC: it is the smallest concentration meeting the test's criterion for killing. Read a low MBC as more potent killing. Take `C[C@@]12CC[C@@H]3[C@@](CC[C@H]4[C@@]3(C)CCC[C@@]4(C)C(=O)OCC[N+](C)(C)Cc3ccccc3)(CC1=O)C2`: the concentration for half-maximal inhibition (IC50) in [2], in data set [5], in [6], in [7], in [8] and in [12] was > 100 µM each time. For the same compound, the IC50 in data set [14] was > 100 µM. In addition, the MIC in data set [3] is 55.8 µM; in [10], 112 µM; in data set [11], 223 µM. The MBC in [4] stood at 223 µM; in data set [9], 112 µM; in data set [13], 55.8 µM. The HC50 at 1 h in data set [1] was > 100 µM.
